Measurements published in patent US4742045A, “Glycopeptide antibiotics” (SmithKline Beckman Corporation, priority 1986, dated 1988).

How the values were obtained:
Staphylococcus aureus = test: standard microtiter assay, minimum inhibitory concentration; format: cell-based; conditions: for MIC: Table 5 organism 1 S. aureus
Method in brief: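 Standard microtiter broth assays, with MIC reported in μg/ml and averaged over several strains per species. The CWI-785 complex was tested, in some cases as HCl salts. Some runs used no serum, 50% human serum or 50% mouse serum.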

[1] = system: Staphylococcus epidermidis; test: as above; format: cell-based
Method in brief: (§1)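 Broth microtiter MIC (μg/ml) of CWI-785 antibiotic, as complex, individual components or HCl salts, against several staphylococcal strains. Some assays run without serum or in 50% human or 50% mouse serum.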

[2] = system: Staphylococcus haemolyticus; test: as above; format: cell-based; conditions: for MIC: Table 5 organism 3 S. haemolyticus
Method in brief: as §1

[3] = system: Staphylococcus saprophyticus; test: as above; format: cell-based; conditions: for MIC: Table 5 organism 6 S. saprophyticus
Method in brief: as §1

Streptococcus pyogenes = test: as above; format: cell-based; conditions: Table 2 test organism 11, Streptococcus pyogenes
Excerpt: Representative results of standard microtiter assays are reported in Tables 1, 2 and 3 which follow, as the minimum inhibitory concentration of antibiotic (μg/ml).
In Table 1, test organisms 1-13 were different strains of Staphylococcus aureus, and 14-16 were different strains of Staphylococcus epidermidis. In Table 2, test organisms 1-5 were different strains of S. aureus; 6, 8, 12 and 14 were different strains of S. epidermidis; 7 was a Staphylococcus haemolyticus; 9 and 10 were different strains of Streptococcus faecalis; 11 was a Streptococcus pyogenes; and 13 was a Staphylococcus saprophyticus. In Table 3, test organisms 1-3 were different strains of S. aureus; 4 and 6 were different strains of S. epidermidis; 5 was a S. haemolyticus and 7 and 8 were different strains of Streptococcus faecalis. Except where individual components are indicated, the CWI-785 antibiotic employed was the CWI-785 complex; in some cases, HCl salts of the CWI-785 antibiotic were employed.

Coag-neg. Staphylococci = test: MIC against an expanded panel; format: cell-based; conditions: Table 4, Coag-neg. Staphylococci (24 strains)
Excerpt: (§2) The number of strains tested is shown in parentheses below each organism. The average MIC is reported in μg/ml.

Group A Strep. = test: MIC against an expanded panel; format: cell-based; conditions: Table 4, Group A Strep. (6 strains)
Excerpt: as §2

Group B Strep. = test: MIC against an expanded panel; format: cell-based; conditions: Table 4, Group B Strep. (4 strains)
Excerpt: as §2

JK Diptheroids = test: MIC against an expanded panel; format: cell-based; conditions: Table 4, JK Diptheroids (19 strains)
Excerpt: as §2

Viridans = test: MIC against an expanded panel; format: cell-based; conditions: Table 4, Viridans (2 strains)
Excerpt: as §2

S. aureus = test: mice infected intraperitoneally, dosed 1 hr after infection, ED50; format: in vivo; conditions: antibiotic i.v. 1 hr post infection
Procedure: (§3) The in vivo activity of the CWI-785 complex and its components and hydrolysis products was confirmed by administering selected CWI-785 antibiotics to mice infected with various gram-positive pathogens. In one representative assay, in which mice infected intraperitoneally with 46.8 LD50 's of S. aureus (strain 1, Tables 1 and 2) were dosed once, subcutaneously one hour after infection, the following ED50 's (mg/kg) were observed: CWI-785B: 2.4, CWI-785C: 3.1, CWI-785: 3.8, HPB3: 0.9, vancomycin: 0.7. In a second representative assay carried out as above except that mice were infected with 3.17 LD50 's of S. faecalis (strain 9, Table 2), the following ED50 's were observed: HPB3 hydrochloride: 1.6, HPB4 hydrochloride: 1.6, vancomycin: 2.2, teicoplanin: 1.3.
(§4) In Table 6, below, is shown the ED50 in mg/kg of HPB4 in comparison to vancomycin and teicoplanin. Mice were injected i.p. with the indicated organism and then i.v., 1 hr post infection, with the indicated antibiotic.

S. faecalis = test: as above; format: in vivo
Procedure: as §3, §4

S. epidermidis = test: mice infected i.p., antibiotic i.v. 1 hr post infection, ED50; format: in vivo; conditions: S. epidermidis 2479 (>1000 × LD50) i.p., antibiotic i.v. 1 hr post infection
Procedure: as §4

S. haemolyticus = test: as above; format: in vivo; conditions: S. haemolyticus 651 (8 × LD50) i.p., antibiotic i.v. 1 hr post infection
Procedure: as §4

STAPH. AUREUS HH 127 = test: prophylactic activity, dosing preinfection; format: in vivo, mice
[4] = Table 4, S. aureus (30 strains)

teicoplanin
minimum inhibitory concentration (Staphylococcus aureus; Table 1 test organism 1, S. aureus strain): 1.6 µg/mL | minimum inhibitory concentration (Staphylococcus aureus; Table 1 test organism 2, S. aureus strain): 1.6 µg/mL | minimum inhibitory concentration (Staphylococcus aureus; Table 1 test organism 3, S. aureus strain): 3.1 µg/mL | minimum inhibitory concentration (Staphylococcus aureus; Table 1 test organism 4, S. aureus strain): 1.6 µg/mL | minimum inhibitory concentration (Staphylococcus aureus; Table 1 test organism 5, S. aureus strain): 1.6 µg/mL | minimum inhibitory concentration (Staphylococcus aureus; Table 1 test organism 6, S. aureus strain): 1.6 µg/mL | minimum inhibitory concentration (Staphylococcus aureus; Table 1 test organism 7, S. aureus strain): 3.1 µg/mL | minimum inhibitory concentration (Staphylococcus aureus; Table 1 test organism 8, S. aureus strain): 6.3 µg/mL | minimum inhibitory concentration (Staphylococcus aureus; Table 1 test organism 9, S. aureus strain): 6.3 µg/mL | minimum inhibitory concentration (Staphylococcus aureus; Table 1 test organism 10, S. aureus strain): 6.3 µg/mL | minimum inhibitory concentration (Staphylococcus aureus; Table 1 test organism 11, S. aureus strain): 3.1 µg/mL | minimum inhibitory concentration (Staphylococcus aureus; Table 1 test organism 12, S. aureus strain): 3.1 µg/mL | minimum inhibitory concentration (Staphylococcus aureus; Table 1 test organism 13, S. aureus strain): 0.8 µg/mL | minimum inhibitory concentration (Staphylococcus aureus; Table 2 test organism 1, S. aureus strain): 3.1 µg/mL | minimum inhibitory concentration (Staphylococcus aureus; Table 2 test organism 2, S. aureus strain): 0.8 µg/mL | minimum inhibitory concentration (Staphylococcus aureus; Table 2 test organism 3, S. aureus strain): 0.4 µg/mL | minimum inhibitory concentration (Staphylococcus aureus; Table 2 test organism 4, S. aureus strain): 3.1 µg/mL | minimum inhibitory concentration (Staphylococcus aureus; Table 2 test organism 5, S. aureus strain): 1.6 µg/mL | MIC50 (Staphylococcus aureus; [4]): 3.1 µg/mL | MIC RANGE (Staphylococcus aureus; [4]): 1.6 to 6.3 µg/mL | MIC (Staphylococcus aureus; 50% Hum. Serum): 6.3 µg/mL | MIC (Staphylococcus aureus; 50% Mse. Serum): 25.0 µg/mL | MIC (Staphylococcus aureus; No Serum): 3.1 µg/mL | minimum inhibitory concentration ([1]; Table 1 test organism 14, S. epidermidis strain): 1.6 µg/mL | minimum inhibitory concentration ([1]; Table 1 test organism 15, S. epidermidis strain): 12.5 µg/mL | minimum inhibitory concentration ([1]; Table 1 test organism 16, S. epidermidis strain): 6.3 µg/mL | minimum inhibitory concentration ([1]; Table 2 test organism 6, S. epidermidis strain): 12.5 µg/mL | minimum inhibitory concentration ([1]; Table 2 test organism 8, S. epidermidis strain): 12.5 µg/mL | minimum inhibitory concentration ([1]; Table 2 test organism 12, S. epidermidis strain): 12.5 µg/mL | minimum inhibitory concentration ([1]; Table 2 test organism 14, S. epidermidis strain): 3.1 µg/mL | MIC ([1]; Table 5 organism 2 S. epidermidis, 50% Hum. Serum): 50.0 µg/mL | MIC ([1]; Table 5 organism 2 S. epidermidis, 50% Mse. Serum): 50.0 µg/mL | MIC ([1]; Table 5 organism 2 S. epidermidis, No Serum): 12.5 µg/mL | MIC ([1]; Table 5 organism 4 S. epidermidis, 50% Hum. Serum): 50.0 µg/mL | MIC ([1]; Table 5 organism 4 S. epidermidis, 50% Mse. Serum): 25.0 µg/mL | MIC ([1]; Table 5 organism 4 S. epidermidis, No Serum): 12.5 µg/mL | MIC ([1]; Table 5 organism 5 S. epidermidis, 50% Hum. Serum): > 100 µg/mL | MIC ([1]; Table 5 organism 5 S. epidermidis, 50% Mse. Serum): <= 0.1 μg/ml | MIC ([1]; Table 5 organism 5 S. epidermidis, No Serum): 12.5 µg/mL | minimum inhibitory concentration ([2]; Table 2 test organism 7, Staphylococcus haemolyticus): 12.5 µg/mL | MIC ([2]; 50% Hum. Serum): 50.0 µg/mL | MIC ([2]; 50% Mse. Serum): 50.0 µg/mL | MIC ([2]; No Serum): 12.5 µg/mL | minimum inhibitory concentration ([3]; Table 2 test organism 13, Staphylococcus saprophyticus): 1.6 µg/mL | MIC ([3]; 50% Hum. Serum): 12.5 µg/mL | MIC ([3]; 50% Mse. Serum): 1.6 µg/mL | MIC ([3]; No Serum): 1.6 µg/mL | minimum inhibitory concentration (Streptococcus pyogenes): 0.2 µg/mL | MIC50 (Coag-neg. Staphylococci): 12.5 µg/mL | MIC RANGE (Coag-neg. Staphylococci): 0.8 to 25 µg/mL | MIC50 (Group A Strep.): <= 0.025 μg/ml | MIC RANGE (Group A Strep.): <0.025 to 0.4 µg/mL | MIC RANGE (Group B Strep.): 0.1 to 1.6 µg/mL | MIC50 (JK Diptheroids): 1.6 µg/mL | MIC RANGE (JK Diptheroids): 0.2 to 3.1 µg/mL | MIC RANGE (Viridans): 0.05 to 0.1 µg/mL | ED50 (S. aureus; S. aureus 2620 (24 × LD50) i.p.): 6.0 mg/kg | ED50 (S. aureus; S. aureus HH 127 (35 × LD50) i.p.): 2.5 mg/kg | ED50 (S. faecalis; S. faecalis 34358 (9 × LD50) i.p., antibiotic i.v. 1 hr post infection): 1.7 mg/kg | ED50 (S. faecalis; mice infected with 3.17 LD50's of S. faecalis (strain 9, Table 2), dosed once subcutaneously one hour after infection): 1.3 mg/kg | ED50 (S. epidermidis): < 1.25 mg/kg | ED50 (S. haemolyticus): > 100 mg/kg | ED50 (STAPH. AUREUS HH 127; Table 8, vs Staph. aureus HH 127 (I.V.)): 0.405 mg/kg | PERCENT SURVIVAL (STAPH. AUREUS HH 127; Table 8: 40 mg/kg (I.V.), 6 hr preinfection): 100%
